Results reported in EP1313763B1, “METHOD FOR THE EXTRACTION AND THE USE OF ANTI[…] PEPTIDES FOR TREATING INFECTIOUS DISEASES” (IPF Pharmaceuticals GmbH, priority 2000, dated 2001).

Legend:
[1] = test system: Micrococcus luteus ATCC 9341; experiment: Minimal inhibitory concentration (MIC) determination; details: incubation 18 ± 2 h, chemically synthesized peptides
Description: (§2) Die antimikrobielle Aktivität der erfindungsgemäßen Peptide wurde unter Anwendung der Bestimmung der minimalen Hemmstoffkonzentration (MIC) gegen verschiedene Keime, wie Gram-positive und Gram-negative Bakterien und Hefen, untersucht. Die minimale Hemmstoffkonzentration bezeichnet die Peptidkonzentration, die minimal erforderlich ist, um das Wachstum von Mikroorganismen nach einer Inkubationszeit von 18 ± 2 h vollständig zu hemmen.

[2] = test system: Pseudomonas aeruginosa clinical isolate; experiment: as above; details: incubation 18 ± 2 h, chemically synthesized peptides
Description: as §2

E. coli = experiment: Radial diffusion inhibition test of HPLC fractions; type: cell-based, Escherichia coli; details: pure peptide in purified HPLC fraction from tissue extract; E. coli in agarose, 37 °C, 16 h
Description: (§1) Für die Reinigung von antimikrobiellen Peptiden aus Plazentaextrakt können verschiedene HPLC Trennverfahren kombiniert werden, um eine möglichst reine Darstellung über eine optimale Trennung zu erzielen und inaktive, unerwünschte Bestandteile abzutrennen. Die jeweiligen Proben, die nach jedem Trennungsschritt entstehen, werden auf ihre antimikrobielle Aktivität gegen Escherichla coli mit Hilfe des Radial-DifFusions-Hemmtests untersucht (siehe Beispiel 3). Notwendig für die Reinigung ist die Kombination von mindestens zwei Reverse Phase Chromatographieschritten und der Einsatz einer Kationenaustausch-HPLC-Trennung. In dem Biotest sollte die jeweilige Probe salzarm eingesetzt werden, um ein möglichst optimales Screeningergebnis zu erhalten.
as §1, with “Thymusextrakt” for “Plazentaextrakt”, “Escherichia” for “Escherichla”, “Radial-Diffusions-Hemmtests” for “Radial-DifFusions-Hemmtests”, “2). Empfehlenswert” for “3). Notwendig”, “In dem Biotest sollte die jeweilige Probe salzarm eingesetzt werden, um ein möglichst optimales Screeningergebnis zu erhalten.” left out

[3] = test system: Saccharomyces cerevisiae ATCC 9763; experiment: Minimal inhibitory concentration (MIC) determination; details: incubation 18 ± 2 h, chemically synthesized peptides
Description: as §2

[4] = test system: Bacillus subtilis ATCC 6051; experiment: as above; details: incubation 18 ± 2 h, chemically synthesized peptides
Description: as §2

[5] = test system: Escherichia coli BL21 (DE3); experiment: as above; details: incubation 18 ± 2 h, chemically synthesized peptides
Description: as §2

[6] = test system: Staphylococcus carnosus TM 300; experiment: as above; details: incubation 18 ± 2 h, chemically synthesized peptides
Description: as §2

[7] = test system: Staphylococcus aureus ATTC 25923; experiment: as above; details: incubation 18 ± 2 h, chemically synthesized peptides
Description: (§3) Dabei werden als Testmikroorganismen entweder Staphylococcus aureus oder Escherichia coli verwendet, je nachdem, bei welchem Mikroorganismus das Peptid bessere Wirksamkeit hat. Die Bakterien sind wie folgt charakterisiert: • Staphylococcous aureus: Gram-positive Kokken, ATCC 25923 • Escherichia coll: Gram-negative Stäbchen, ATCC 25922
(§4) Die antimikrobielle Aktivität der erfindungsgemäßen Peptide wurde unter Anwendung der Bestimmung der minimalen Hemmstoffkonzentration (MIC) gegen verschiedene Keime, wie Gram-positive und Gram-negative Bakterien und Hefen, untersucht. Die minimale Hemmstoffkonzentration bezeichnet die Peptidkonzentration, die minimal erforderlich ist, um das Wachstum von Mikroorganismen nach einer Inkubationszeit von 18 ± 2 h vollständig zu hemmen. Diese Quantifizierung der antimikrobiellen Aktivität ist mit chemisch synthetisierten Peptiden (Peptidsequenzen 1-5) gegen nicht pathogene sowie human pathogene Erreger durchgeführt worden.

[8] = test system: Klebsiella pneumoniae ATCC 10031; experiment: as above; details: incubation 18 ± 2 h, chemically synthesized peptides
Description: as §2

[9] = test system: Escherichia coli ATTC 25922; experiment: as above; details: incubation 18 ± 2 h, chemically synthesized peptides
Description: as §3, §4

Row | Substance | minimale Hemmkonzentration (MIC) [1] [µg/mL] | minimale Hemmkonzentration (MIC) [2] [µg/mL] | antimikrobielle Aktivität (E. coli) | minimale Hemmkonzentration (MIC) [3] [µg/mL] | minimale Hemmkonzentration (MIC) [4] [µg/mL] | minimale Hemmkonzentration (MIC) [5] [µg/mL] | minimale Hemmkonzentration (MIC) [6] [µg/mL] | minimale Hemmkonzentration (MIC) [7] [µg/mL] | minimale Hemmkonzentration (MIC) [8] [µg/mL] | minimale Hemmkonzentration (MIC) [9] [µg/mL]
1 | hGAPDH-1-31 [Peptide 2] | 31.25 | 31.25 | antimikrobiell wirksame | 100 | 7.8 | 7.8 | 12.5 | – | – | –
2 | hHEM-g-130-146 [Peptide 1] | 200 | > 200 | antimikrobiell wirksame | 100 | 100 | 100 | 100 | 200 | 300 | 200
